Laboratory results published in US8877968B2, “Melanocortin receptor modulators, process for preparing them and use there in human medicine and cosmetics” (Galderma Research & Development, priority 2008, dated 2014).
pEC50: −log10 of the molar value.

Key:
hMC1R = biological target: T1, hMC1R (Homo sapiens, UniProt Q01726); test: Transactivation test (CRE-Luc luciferase, agonist mode); assay type: cell-based; conditions: HEK293 transfected with pCRE-Luc and hMC1R; products tested alone (agonist), 6 hours; normalized to NDP-MSH 10 nM = 100%; read-out: EC50 hMC1-R
T1 construct: expressed in transfected cells; host or cells: HEK293
Description: The lines HEK293 are transfected with vectors pCRE-Luc and hMC1R. The cells are cultured at 37° C. and 5% CO2, in DMEM medium supplemented with 10% foetal calf serum.
In the presence of an activator (agonist), the melanocortin receptor will activate the cAMP pathway, which, via the vector CRE-Luc, will lead to the synthesis of luciferase. After addition of a lysis buffer containing a luminescent luciferase substrate, the luminescence proportional to the degree of activation or inhibition of receptor may be measured.
The products are dissolved at 10 mM in DMSO. They are tested as a response dose at 0.1% of DMSO final. The range comprising 10 points and a zero starts at 10 μM with four-fold dilutions. To test agonists, the products are tested alone. To determine the antagonist behaviour, the products of interest are tested in the presence of 1 nM NDP-MSH (reference agonist). The cells are inoculated at a rate of 5000 cells per well (384-well plate) in serum-free DMEM medium and incubated overnight at 37° C. and 5% CO2.
The products and the reference ligand (NDP-MSH) are added the following day and the plates are reincubated for 6 hours at 37° C. and 5% CO2. After adding the lysis buffer containing luciferin, the plates are read in a Top-Count machine. […] An EC50 is calculated for each product using the XLFit software. […]

[1] = Test of metabolic stability in the presence of liver microsomes; assay type: in vitro ADME; conditions: liver microsomes 0.5 mg/ml, product 10 μM, 37° C., pH 7.4, NADP/G6P cofactors; disappearance of parent by LC/MS/MS; species not given; read-out: t½
Description: Test of Metabolic Stability in the Presence of Liver Microsomes
The microsomes are cellular endoplasmic reticulum vesicles obtained after purification, from liver tissue. They contain membrane enzymes (Cytochromes P450) involved in oxidative metabolism (phase I).
In a buffered reaction medium at 37° C., the test product is incubated in the presence of microsomes from different species. Samples of the incubate are taken at different times (kinetics). Quantification by LC/MS/MS analysis makes it possible to measure the disappearance of parent product associated with the phase I liver metabolism.
The products are dissolved at 10 mM in DMSO. They are incubated at 10 μM in the presence of microsomes (0.5 mg/ml). The reaction medium is formed from 100 mM phosphate buffer at pH 7.4, G6PDH (0.4 U/ml), 0.01% Pluronic acid and cofactors MgCl2 5 mM, NADP and G6P (1.3 mM and 3.3 mM, respectively). Samples of the reaction medium are taken at 0, 5, 10, 15, 30 and 60 minutes. At each time, the enzymatic reaction is stopped by adding methanol. After centrifugation (3000 rpm, 30 minutes), the samples are analysed by LC/MS/MS. The concentration of parent product remaining is quantified over time and allows a half-life to be calculated for each product.

[2] = Log P and Log D by HPLC-MS (octanol-water); assay type: physicochemical; conditions: octanol/water (50/50 v/v); octanol-water 50/50, pH 6.5, LC/MS/MS
Text: Lod P and Loci D by HPLC-MS
Log P, also known as Log Kow, (octanol/water partition coefficient) enables characterization of the lipophilic nature of a molecule. Log P=Log(Coct/Cwater)
In contrast with Log P, Log D is a determination of a given pH.
Preparation of the Samples
The molecule at 10^−2M in DMSO is placed in an octanol-water mixture (50/50 volume/volume).
After stirring for ten hours, the sample is centrifuged and the two phases are separated in order to be analysed. The octanol phase is diluted in methanol before assay.
The concentrations of test molecule present in each phase are determined by an LC/MS/MS analysis. Log P=Log(areaoct*Dilution factor/areaaq)

B6.Cg-Ay mice = test: Modulation of the pigmentation of hair during regrowth after depilation in mice; assay type: in vivo; conditions: female B6.Cg-Ay mice; 5% in ethanol applied topically every day for 11 days after depilation; chromametry 19 days after depilation; smaller L = darker hair
Text: FIG. 2 is a bar graph showing the modulation of the pigmentation of hair during regrowth after depilation in mice, where the L value measures color on a scale where the smaller the value of L, the darker the hair, for two compounds of the invention diluted in ethanol and applied topically each day for 11 days after depilation.
Modulation of the Pigmentation of Hair During Regrowth After Depilation in Mice: (Results in Table of FIG. 2)
Female 8-week-old B6.Cg-Ay mice are shaved and then subjected to depilation with cold wax under gaseous anaesthesia to synchronize all the hair follicles at the start of the anagenic phase.
After depilation, the MC1R agonists diluted to 5% in ethanol are applied topically every day to the depilated area for 11 days. Nineteen days after depilation, the pigmentation of the hairs is measured by chromametry on the area of regrowth: the L value measures the colour on a scale ranging from black to white (the smaller the value of L, the darker the hair).

T1 sequence (Q01726 whole entry): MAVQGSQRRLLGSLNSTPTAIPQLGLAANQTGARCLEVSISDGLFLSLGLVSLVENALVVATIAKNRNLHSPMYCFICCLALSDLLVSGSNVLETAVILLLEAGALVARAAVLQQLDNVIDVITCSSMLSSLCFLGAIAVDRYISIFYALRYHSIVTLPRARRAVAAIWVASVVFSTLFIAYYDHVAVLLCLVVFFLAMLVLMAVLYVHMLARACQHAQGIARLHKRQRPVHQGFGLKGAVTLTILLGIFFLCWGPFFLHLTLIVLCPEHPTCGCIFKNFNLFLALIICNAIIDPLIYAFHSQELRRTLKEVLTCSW

pEC50 (hMC1R) | half-life at 10 μM [1] [min] | logD at 10 h [2] | SMILES | Value of L at D19, Mean (B6.Cg-Ay mice)
7.22 | 3 to 4 | 4 | CCOC(=O)C1(C2CCCCC2)CCN(C(=O)[C@@H](Cc2ccc(OC)cc2)NC(=O)NCCc2c[nH]cn2)CC1 [Compound 34, Ethyl 4-cyclohexyl-1-[(R)-2-{3-[2-(1H-imidazol-4-yl)ethyl]-ureido}-3-(4-methoxyphenyl)propionyl]piperidine-4-carboxylate] | 27.42
6.92 | 3 to 4 | 4.8 | CCCC(=O)C1(C2CCCCC2)CCN(C(=O)[C@@H](Cc2ccc(OC)cc2)NC(=O)NCCc2c[nH]cn2)CC1 [Compound 40, 1-[(R)-2-(4-Butyryl-4-cyclohexylpiperidin-1-yl)-1-(4-methoxybenzyl)-2-oxoethyl]-3-[2-(1H-imidazol-4-yl)ethyl]urea] | 31.00
